Consider four compounds from patent US5393779A, “Chemical compounds” (Zeneca Limited, priority 1991, dated 1995).

Assay [1] deals with brown adipose tissue (BAT) mitochondria. Kind of assay: Test (a): GDP binding in BAT mitochondria of cold-adapted rats as a measure of thermogenic activation. Format: in vivo. The following applies: BAT removed one hour after dosing; for ED50: Rattus norvegicus, 1 h, oral, relative to isoprenaline 1 mgkg^-1, read-out: oral ED50 (dose producing 50% of the isoprenaline effect on GDP binding). The method, then:
(a) Rats are cold adapted at 4° C. for 5 days to increase their capacity for thermogenesis. They are then transferred to a warm environment of 25° C. for 2 days. On the following day, a test compound is administered sub-cutaneously or orally. Animals are sacrificed one hour later and the interscapular, brown adipose tissue (BAT) pad is removed. BAT mitochondria are prepared by differential centrifugation and GDP binding is determined (Holloway et al., International Journal of Obesity, 1984, 8, 295) as a measure of thermogenic activation. Each test includes a control which is dosed with the solution/suspension vehicle only and a positive control which is dosed with isoprenaline (as its sulphate) at 1 mgkg^-1. Test compounds are routinely dosed at 0.1, 0.3, 1.0, 3.0, and 10 […] and results expressed in terms of the effect on GDP binding produced by the positive control. […] Compounds are considered active in this test if they cause a significant elevation in GDP binding as compared to controls.

Assay [2] concerns Rats. Briefly: Test (b): heart rate in rats, D500 dose and selectivity index (SI). Format: in vivo. The method, then: (b) Rats are adapted to a thermoneutral environment (29° C.) for 2 weeks in order to decrease their capacity for BAT mediated non-shivering thermogenesis. During the final 5 days the animals are trained to use an apparatus for measuring heart rate non-invasively via foot-pad electrodes connected to an ECG integrator giving a continuous read-out of heart rate. A test compound is administered sub-cutaneously or orally at the ED50 determined in test (a), and heart rate is determined 15-30 minutes after dosing. The procedure is then repeated in subsequent tests using increasing multiples of the ED50 determined in test (a) until the heart rate (HR) reaches or exceeds 500 beats per minute, or until the dose reaches 100 times the ED50 determined in test (a). The dose necessary to produce a heart rate of 500 beats per minute (D500 dose) is estimated.
The ratio of D500 to ED50 in test (a) can be defined as the selectivity index (SI) and provides a measure of the selectivity of the compound for BAT as opposed to the cardiovascular system.

In assay [3] the test system is Male rats. Briefly: Oral glucose tolerance test. The class given is in vivo. The note with it: for Plasma glucose: 5 mg/Kg p.o., mean±S.E.M., six rats. The method, then: Male rats (125-150 g) were fasted for 24 hours. After fasting, a group of six rats was anaesthetised and a cardiac blood sample taken. Other groups of rats were then dosed with the compound of Example 1 (5.0 mg/Kg p.o.) dissolved in an aqueous solution of 0.025% polysorbate. Control rats were dosed with polysorbate solution alone. The volume of solution dosed was 0.5 ml/100 g body weight. 60 minutes subsequent to dosing six control and six treated rats were anaesthetised and cardiac samples taken. The remaining rats were given an oral glucose load (1 g/Kg) dosed as a 20% solution of D-glucose (0.5 ml/100 g). Groups of six rats for each control and treatment were then anaesthetised and bled at 20, 60 and 120 minutes after the glucose load. Plasma glucose and insulin were determined using standard methods.
The results are mean±S.E.M. of observations in six rats in each group. Student's t test was used to test the significance of the difference between control and treated groups.

The subject of assay [4] is Rats. Kind of assay: Test (c): metabolic rate by closed-circuit oxygen consumption in rats. Format: in vivo. The note with it: 1mgkg^-1 p.o. The method, then: (c) Rats are kept at 23° C. for at least two days, then fasted overnight. On the following day, the basal metabolic rate of the animals is determined using a close-circuit oxygen consumption apparatus of the type described by Arundel et al., 1984, J. Appl. Physiol. Respirat. Environ. Exercise Physiol., 1984, 57 (5) 1591-1593. The rats are then dosed (orally) with test compound at about 1 mgkg^-1 as a solution or suspension in 0,025% w/v Polysorbate 80 (0.5 ml/100 g). Metabolic rate is then determined for at least one hour after dosing. Compounds are considered active in this test if they cause a significant increase in metabolic rate as compared to control animals (Student's t test: p <0.05) dosed only the solution or suspension vehicle.

Assay [5] has as its system rat adipocytes. Briefly: Rat adipocyte lipolysis test. Format: cell-based, rats. The following applies: 1.5 h, rat epididymal adipocytes, 90 minutes, free fatty acids, isoprenaline 3×10^-6 M, read-out: Efficacy (maximal effect on lipolysis as a percentage of the maximal effect of isoprenaline). The method, then:
Epididymal adipose tissue was excised from male rats and adipocytes prepared by digestion with collagenase. Cells were isolated by flotation and washed four times with Krebs Ringer Bicarbonate buffer (KRB), finally washing in KRB containing 2% bovine serum albumin (KRB/BSA). Aliquots of the cell suspension were incubated in the presence of a range of concentrations of the test compound in a total volume of 1 ml KRB/2% BSA containing 0.1 mg/ml ascorbate in an atmosphere of 95%O2,5%CO2. Incubations were also carried out in the presence of a concentration of isoprenaline (3×10^-6 M) known to have a maximal effect on lipolysis. Control incubations were carried out in KRB/2% BSA containing ascorbate. The incubations were terminated after 90 minutes by placing the tubes on ice, and aliquots of infranatant removed for assay of free fatty acids which were measured using a WAKO NEFA-C assay kit (Alpha Laboratories). Lipolytic activity of the compounds was assessed by determining the increase in free fatty acid concentrations caused by the compounds compared to controls. The maximal effects (efficacy) of the compounds were determined and expressed as percentage of the maximal effect of isoprenaline.
Efficacy is the maximal effect of the test compound on lipolysis expressed as a percentage of the maximal effect of isoprenaline.

Assay [6] concerns C57BL/KsJ (db/db) mice. Briefly: Effects on blood glucose levels in insulin resistant db/db mice. The class given is in vivo. The note with it: 50 mg/kg diet. How it is done: Effects on blood glucose levels in insulin resistant db/db mice C57BL/KsJ (db/db) mice were divided into two groups and allowed free access to control diet or diet containing the compound of Example 1 at a concentration of 50 mg/kg diet. A group of control (+/+) mice was also included in the experiment. After 16 days treatment, blood samples were taken from the mice for determination of blood glucose levels.
Results are mean±S.E.M. of observations in groups of 15 mice. Student's t test was used to test the significance of the difference between control (+/+) and treated (db/db) groups.

Turning to `O=C(O)COc1ccc(OCCNCC(O)c2ccccc2)cc1` (stereo not drawn) [4-[2-(2-Hydroxy-2-phenylethylamino)-ethoxy]phenyloxyacetic acid, reference compound], the ED50 (in general, the dose that gives a 50% effect, or the effect in half of the subjects) in assay [1] was above 3 mg/kg.
As for `CC(C)NCC(O)c1ccc(O)c(O)c1` (stereo not drawn) [isoprenaline, reference compound], in assay [2] (route not stated), the “SI (selectivity index, ratio of D500 to ED50 in test (a))” value is 0.06.
For `O=C(O)Cc1ccc(OCCNC[C@H](O)c2ccccc2)cc1` [Example 1, (R)-4-[2-(2-Hydroxy-2-phenylethylamino)ethoxy]phenylacetic acid], in assay [2] (oral), the “SI (selectivity index, ratio of D500 to ED50 in test (a))” value is listed as above 50. In addition, the Plasma glucose in assay [3] (0 mins relative to oral glucose load) is 3.52 ± 0.07 mM; in assay [3] (20 mins after oral glucose load (1 g/Kg)) it was 5.72 ± 0.24 mM; in assay [3] (60 mins after oral glucose load (1 g/Kg)), 5.32 ± 0.24 mM; in assay [3] (120 mins after oral glucose load (1 g/Kg)) it was 5.43 ± 0.31 mM. In addition, the “antihyperglycaemic activity (in words)” value in assay [3] (5.0 mg/Kg p.o., rats) is “marked antihyperglycaemic activity”. Also, in assay [4], the “metabolic rate (oxygen consumption)” value is reported as 6.53 ml O2 min^-l (Kg^O.75). In assay [5], the Emax came out at 100%. For the same compound, the “effect on blood glucose levels (in words)” value in assay [6] (16 days) is reported as “normalises blood glucose levels”. The same compound had a Blood glucose in assay [6] (after 16 days treatment, mean±S.E.M., 15 mice) of 5.3 ± 0.46 mM. The “oral ED50 (dose producing 50% of the isoprenaline effect on GDP binding)” value in assay [1] (relative to isoprenaline 1 mgkg^-1) is recorded as 0.55 mgkg^-1. The ED50 in assay [1] was found to be 0.55 mg/kg.
Turning to `O=C(O)COc1ccc(OCCNCC(O)COc2ccccc2)cc1` (stereo not drawn) [4-[2-(2-Hydroxy-3-phenoxypropylamino)-ethoxy]phenoxyacetic acid, reference compound], the Emax in assay [5] is 26%.
